Where two headings read alike, the source gives them in different places.
Assays:
Pan02 cells = assay: 72 h MTT cytotoxicity, Pan02; format: cell-based, mouse
Procedure: (§1) Cytotoxicity. Tumor cells were cultured overnight after inoculation in RPMI-1640 medium or DMEM supplemented with 10% FBS. All cultures were maintained in an incubator in a highly humidified atmosphere of 95% air with 5% CO2 at 37 °C. Growth inhibition was measured with an MTT assay. Briefly, 2800–7000 cells per well in culture medium (100 μL) were plated in 96-well plates (Corning). The cells were treated in triplicate with different concentrations of complexes at 37 ℃ for 72 h. Stock solutions of CDDP and oxoplatin were prepared in PBS, while stock solutions of conjugates I and II and the ligand MSA-2 were prepared in DMSO. The stock solutions were diluted in complete medium (DMSO < 0.5%). An aliquot of MTT solution (40 μL, 2.5 mg·mL^–1) in PBS buffer was added to each well and incubated for 4 h. The supernatant was removed and DMSO (150 μL) was added to solubilize the formazan crystals. The amount of formazan was determined using a microplate reader at 570 nm after the plates were shaken for 30 min. The optical density (OD) was used to calculate the percentage of viable cells relative to untreated control values. Background readings for MTT incubated in cell-free medium were subtracted from each value before calculation. […] The mean IC50 values were calculated using data from three replicates.

[1] = octanol-water partition coefficient, shake-flask, ICP-MS; format: physicochemical; conditions: n-octanol / phosphate buffer 10 mM pH 7.4, room temperature
Procedure: Lipid-water partition coefficient. The shake-flask method was used to measure the partition coefficients of CDDP, I and II. Briefly, a mixture containing equal volumes of n-octanol and phosphate buffer (10 mM, pH 7.4) was shaken on a mechanical shaker at room temperature for 24 h. Complexes (10 mM) in phosphate buffer (presaturated with n-octanol) were mixed with an equal volume of n-octanol (presaturated with phosphate buffer), and the mixture was shaken for 24 h at room temperature. Centrifugation was carried out at 2500 rpm for 30 min to separate the two phases. The aqueous layer was carefully separated, and the Pt content in the initial and final aqueous phases was analyzed by inductively coupled plasma mass spectrometry (ICP-MS). The log PO/W was measured using the following equation: log PO/W = log [(Ptinitial ‒ Ptfinal)/Ptfinal].

MCF-7 cells = assay: 72 h MTT cytotoxicity, MCF-7; format: cell-based, human
Procedure: as §1

PANC-1 cells [2] = assay: cellular uptake of Pt by ICP-MS, PANC-1; format: cell-based, human; conditions: PANC-1 cells, 6 h incubation, ICP-MS
Procedure: Cellular uptake. All incubations were carried out in the dark. After the designated incubation period, the medium was removed, and the cells were harvested with trypsin and rinsed twice with PBS (1×, 20 mM, pH 7.4), followed by digestion and ICP-MS.
Cancer cells were seeded in a 6-well plate at a density of 5×10^5 cells per well. After incubation for 24 h, the cells were treated with each complex for 6 h.
Cancer cells preincubated with metabolic inhibitor (MIs) were also evaluated. These cells were preincubated with 2-deoxy-D-glucose and oligomycin (50 mM and 5 μM, respectively, 1 h) or NH4Cl (50 mM, 1 h) at 37 ℃ followed by incubation with DMEM containing CDDP, I or II at 37 ℃ for 6 h.
Digestion. Cell pellets were collected by centrifugation and then digested with nitric acid (100 µL) for 2 h at 95 °C, followed by the addition of H2O2 (50 µL) at 95 °C for 0.5 h. HCl (100 µL) was added and kept at 95 °C until the total volume was less than 20 μL. Water was then added to dilute the solution to 1 mL, and the final Pt content was determined by ICP-MS.

[3] = reduction by ascorbic acid (AsA) followed by 1H-/195Pt-NMR; format: physicochemical; conditions: 20 mM, 8 equiv. AsA, 5:1 d6-DMSO:D2O, 37 °C, dark
Procedure: Reduction of I and II. Samples were prepared by reacting I or II (20 mM) with 8 equiv. AsA in 5:1 d6-DMSO:D2O solutions. The time course of the reaction was monitored by ^1H-NMR and ^195Pt-NMR after incubation of the samples were incubated at 37 °C for 0, 3, 6, 12, 24, 36, 48, 60, 72, 84, 96, or 120 h in the dark.

HK-2 cells = assay: 72 h MTT cytotoxicity, HK-2; format: cell-based
Procedure: as §1

Caov3 cells = assay: 72 h MTT cytotoxicity, Caov3; format: cell-based, human
Procedure: as §1

BxPC3 cells = assay: 72 h MTT cytotoxicity, BxPC3; format: cell-based, human
Procedure: as §1

PANC-1 cells [4] = assay: 72 h MTT cytotoxicity, PANC-1; format: cell-based, human
Procedure: as §1

[5] = system: cancer cell lines (MCF-7, Caov3, PANC-1, BxPC3, Pan02); assay: 72 h MTT cytotoxicity, panel of cancer cell lines; format: cell-based; conditions: read-out: IC50 in these cancer cell lines
Procedure: as §1

[6] = system: BMDCs cultured with Pan02 cell CM; assay: IFN-β ELISA of BMDCs incubated with conditioned medium of drug-treated Pan02 cells; format: cell-based, mouse; conditions: Pan02 treated 48 h at 5 μM (Pt-E-I 20 μM); BMDCs 50% CM, 18 h
Procedure: (§2) ELISA. Bone marrow-derived dendritic cells (BMDCs) were prepared according to the following method. Briefly, femurs and tibias were removed from 4-6 week-old C57BL/6 mice, and the bone marrow cells were isolated. The bone marrow cells were incubated in T cell medium [RPMI-1640 medium (with GlutaMAX), supplemented with 10% FBS, 1% HEPES, 1% NEAA, 1% sodium pyruvate, and 0.1% βME] containing 20 ng/mL GM-CSF for 6 days after erythrocyte lysis, during which time half of the medium was replaced with fresh T cell medium once and the cytokines were supplemented. Then, the BMDCs were harvested on day 7 for further study.
Pan02 tumor cells were treated with various drugs at a concentration of 5 μM for 48 h, and then the drug-pretreated tumor cell supernatant was obtained by centrifugation at a speed of 12000 rpm/min for 5 min and used as conditioned media (CM) subsequently.
(§3) BMDCs were cultured with 50% CM plus 50% fresh medium for 18 h. In addition, BMDCs were cultured with fresh medium containing different complexes or mixtures (15 μM CDDP and I, a mixture of I and 8 equiv. AsA, and equal AsA). Then, all the BMDC supernatant was collected and centrifuged for subsequent cytokine analysis using ELISA kits, which were performed according to the manufacturer’s instructions.

STING pathway in BMDCs = assay: IFN-β and IL-6 ELISA in supernatants of BMDCs treated with complexes; format: cell-based, mouse; conditions: 18 h, ELISA, 15 μM
Procedure: as §2, §3

[7] = H&E histology of major organs after treatment; format: in vivo, mouse; conditions: C57BL/6 mice after treatment, 10.0 μmol/kg
Procedure: Hematoxylin and eosin staining. Tissue samples were subjected to histopathological examination using hematoxylin and eosin (H&E) staining. Mouse organs (heart, liver, spleen, lungs and kidneys) were collected in 4% paraformaldehyde for proper fixation and then embedded in paraffin using a tissue embedding machine. Sections were prepared in an orderly manner by dewaxing, dehydration, and H&E staining. The tissue morphology was observed under a fluorescence microscope (Olympus BX41, Japan).

Pan02 tumors = assay: in vivo antitumor activity, C57BL/6 mice bearing Pan02 tumors; parameters: species or system mouse; conditions: C57BL/6 mice, Pan02 tumors, 10.0 μmol/kg every 2 days for 16 days, intravenous
Procedure: In vivo antitumor activity. Female C57BL/6 mice (6–8 weeks old) were subcutaneously implanted with pan02 cells (2 × 10^6) in the right flank. Once the tumor volume reached approximately 60 mm^3, the mice were assigned to 4 groups at random (n = 5–8) and received treatment with PBS, CDDP (10.0 μmol/kg), I (10.0 μmol/kg), or a mixture of CDDP (10.0 μmol/kg) and MSA-2 (10.0 μmol/kg). The mice received 9 treatments. Changes in body weight and tumor volume were recorded. All the experimental procedures utilizing mice were performed in accordance with the Guidelines for Care and Use of Laboratory Animals of Nanjing University and experiments were approved by the Institutional Animal Care and Use Committee of Nanjing University (IACUC-2101001, SL-019-00).

Row | Structure (SMILES) | IC50 (Pan02 cells) | IC50 (MCF-7 cells) | cellular Pt content (PANC-1 cells [2]) | IC50 (HK-2 cells; human normal kidney cell line) | IC50 (Caov3 cells) | IC50 (BxPC3 cells) | IC50 (PANC-1 cells [4]) | IFN-β secretion by BMDCs incubated with treated Pan02 cell CM [6] | also measured
1 | COc1cc2cc(C(=O)CCC(=O)[O][Pt]([NH2])([NH2])([Cl])([Cl])[O]C(=O)CCC(=O)c3cc4cc(OC)c(OC)cc4s3)sc2cc1OC [conjugate II] | 8.4 ± 0.7 µM | > 64 µM | 2.3 ng Pt/mg protein | 3.6 ± 1.2 µM | 5.3 ± 0.4 µM | 4.9 ± 0.8 µM | 6.9 ± 0.9 µM |  | octanol-water partition coefficient (logPo/w) [1]: 2.1; time at which reduction by AsA finished [3]: 120 h
2 | N.N.[Cl-].[Cl-].[OH-].[OH-].[Pt+4] [Oxoplatin, Cis-diamminedichloro-trans-dihydroxyplatinum] | > 50 µM | 8.2 ± 0.7 µM |  | 38.7 ± 4.1 µM | > 50 µM | > 50 µM | > 50 µM |  | 
3 | COc1cc2cc(C(=O)CCC(=O)O)sc2cc1OC [MSA-2] |  |  |  |  |  |  |  | moderate | IC50 (Pan02 cells; Mus musculus, Pan02): > 50 µM; IC50 [5]: > 50 µM; IC50 (MCF-7 cells; Homo sapiens, MCF7): > 50 µM; IC50 (HK-2 cells; HK-2, human normal kidney cell line): > 50 µM; IFN-β secretion by BMDCs (STING pathway in BMDCs): robust; IL-6 secretion by BMDCs (STING pathway in BMDCs): robust; IC50 (Caov3 cells; Homo sapiens, Caov-3): > 50 µM; IC50 (BxPC3 cells; Homo sapiens, BXPC-3): > 50 µM; IC50 (PANC-1 cells [4]; Homo sapiens, PANC-1): > 50 µM
4 | [NH2][Pt]([NH2])([Cl])[Cl] [CDDP, cisplatin] | 8.3 ± 0.6 µM | 5.4 ± 0.3 µM | 1.7 ng Pt/mg protein | 8.2 ± 0.5 µM | 26.8 ± 2.2 µM | 1.6 ± 0.1 µM | 11.1 ± 1.3 µM | slightly increased | histological findings in major organs [7]: substantial blood cell stasis in the liver blood sinuses and thickening of the alveolar wall as well as large infiltrates of inflammatory cells in the trachea and bronchus; tumor volume (Pan02 tumors): 200.2 ± 20.6 mm^3

Source: publication PMC10852989, “Combining cisplatin and a STING agonist into one molecule for metalloimmunotherapy of cancer” (National Science Review, 2024)
